The text below walks through data of paper PMC6268327 (2012).

Assay [1] deals with p53 DNA (P1 promoter fragment duplex) (DNA, duplex) CCTCCTCCCCAACTCC/GGAGTTGGGGAGGAGG
Description: fluorescence quenching titration (double-log plot). The settings on record: Tris-HCl buffer 100 mM (no metal cations given); 100 mM Tris-HCl, pH 7.4; 298 K; 1 μM compound; double-log fit, apparent.

The test system of assay [2] is C-myc DNA (NHE III1 promoter fragment duplex) (DNA, duplex) GGGAGGGTGGGGAAGG/CCTTCCCCACCCTCCC
The experiment in a line: fluorescence quenching titration (double-log plot). As to conditions: Tris-HCl buffer 100 mM (no metal cations given); 100 mM Tris-HCl, pH 7.4; 298 K; 1 μM compound; double-log fit, apparent.

`OCCCCc1ccc2ccc3cccc4ccc1c2c34`: the Kb in assay [1] came to 2040 L/mol; in assay [2], 1390 L/mol.

As for `Oc1ccc2ccc3cccc4ccc1c2c34`, the values for the Kb in assay [1] and in assay [2] were 1.16e+06 L/mol and 404000 L/mol, respectively.
